# Laboratory results taken from US7875587B2, “Peptide analogues of GIP for treatment of diabetes, insulin resistance and obesity” (UUTECH Limited, priority 2004, dated 2011).
# No end group written: not given here.
# How the values were obtained:
# [1] = test system: obese diabetic ob/ob mice; assay: Chronic (11 days, s.c.) (Pro3)GIP administration in obese diabetic ob/ob mice; format: in vivo, mouse
# Protocol: Effects of chronic (Pro^3)GIP administration on plasma glucose, insulin and glycated HbA1c in obese diabetic ob/ob mice and normal mice. Obese diabetic ob/ob mice and normal control mice aged 8-12 weeks were randomly divided into groups which received once daily subcutaneous injections (17:00 h) of either saline (0.9% w/v NaCl) or (Pro^3)GIP (25 nmol/kg body weight in saline). After 11 days, treatment was ceased. Food intake and body weight were recorded daily. Blood samples were collected from the cut tip of the tail of conscious mice into chilled fluoride/heparin coated glucose microcentrifuge tubes (Sarstedt, Numbrecht, Germany). Blood samples were immediately centrifuged using a Beckman microcentrifuge (Beckman Instruments, UK) for 30 seconds at 13000 g prior to glucose, insulin and HbA1c determinations.
# Effects of chronic treatment with (Pro^3)GIP on glucose tolerance in ob/ob mice and normal mice. Plasma glucose and insulin concentrations were measured following intraperitoneal administration of glucose (18 mmol/kg body weight) in ob/ob and normal mice treated with either saline (0.9% w/v NaCl) or (Pro^3)GIP (25 nmol/kg body weight/day) for 11 days. This test was repeated 9 days after cessation of chronic (Pro^3)GIP treatment. Blood samples were collected from the cut tip of the tail of conscious mice into chilled fluoride/heparin microcentrifuge tubes (Sarstedt, Numbrecht, Germany) immediately prior to injection and at 15, 30 and 60 minutes post injection. Blood samples were immediately centrifuged using a Beckman microcentrifuge (Beckman Instruments, UK) for 30 seconds at 13000 g and stored at −20° prior to glucose and insulin determinations.
# Effects of chronic treatment with (Pro^3)GIP on the glucose lowering effects of exogenous insulin in ob/ob mice. The glucose lowering effects of insulin were evaluated by measuring plasma glucose response in 11-day saline (0.9% w/v NaCl) and (Pro^3)GIP (25 nmol/kg body weight/day) treated ob/ob mice following acute intraperitoneal administration of insulin (50 U/kg bodyweight). Blood samples were collected from the cut tip of the tail of conscious mice into chilled fluoride/heparin microcentrifuge tubes (Sarstedt, Numbrecht, Germany) immediately prior to injection and at 30 and 60 minutes post injection. Blood samples were immediately centrifuged using a Beckman microcentrifuge (Beckman Instruments, UK) for 30 seconds at 13000 g and stored at −20° prior to glucose determination.
# Effects of chronic treatment with (Pro^3)GIP on pancreatic insulin content and associated islet hypertrophy in ob/ob mice. Pancreatic tissue was excised from non-fasted ob/ob mice after 11 days treatment with either saline (0.9% w/v NaCl) or (Pro^3)GIP (25 nmol/kg body weight/day). Pancreatic samples were individually wrapped in aluminium foil and snap frozen in liquid nitrogen. Individual excised pancreatic samples were then either embedded, sectioned and immunohistochemically stained for insulin or permeabilised for determination of pancreatic insulin content.
# Determination of HbA1c, plasma glucose and insulin concentrations. HbA1c was measured in whole blood by ion-exchange high-performance liquid chromatography using the Menari HA-8140 kit (BIOMEN, Berkshire, UK). Plasma glucose was assayed by an automated glucose oxidase procedure using a Beckman Glucose Analyzer II (Stevens, J. F., 1971, Clinica Chemica Acta 32:199-201) and plasma insulin was determined by RIA (Flatt, P. R. et al., 1981, Diabetologia 20:573-577). Incremental areas under plasma glucose and insulin curves (AUC) were calculated using a computer generated program (CAREA) employing the trapezoidal rule (Burington, R. S., 1973, Handbook of Mathematical Tables and Formulae, New York, McGraw Hill) with baseline subtraction.
# [2] = molecular target: T1, DPP IV (Sus scrofa, UniProt P22411); assay: DPP IV degradation studies of fatty acid derivatised GIP analogues; format: in vitro ADME, porcine; details: pig, isolated enzyme dpp iv, pH 7.8, incubation with DPP IV, read-out: % Intact peptide remaining after time (hours)
# T1 construct: purchased Sigma (Poole, Dorset, UK)
# T1 sequence (P22411 whole entry): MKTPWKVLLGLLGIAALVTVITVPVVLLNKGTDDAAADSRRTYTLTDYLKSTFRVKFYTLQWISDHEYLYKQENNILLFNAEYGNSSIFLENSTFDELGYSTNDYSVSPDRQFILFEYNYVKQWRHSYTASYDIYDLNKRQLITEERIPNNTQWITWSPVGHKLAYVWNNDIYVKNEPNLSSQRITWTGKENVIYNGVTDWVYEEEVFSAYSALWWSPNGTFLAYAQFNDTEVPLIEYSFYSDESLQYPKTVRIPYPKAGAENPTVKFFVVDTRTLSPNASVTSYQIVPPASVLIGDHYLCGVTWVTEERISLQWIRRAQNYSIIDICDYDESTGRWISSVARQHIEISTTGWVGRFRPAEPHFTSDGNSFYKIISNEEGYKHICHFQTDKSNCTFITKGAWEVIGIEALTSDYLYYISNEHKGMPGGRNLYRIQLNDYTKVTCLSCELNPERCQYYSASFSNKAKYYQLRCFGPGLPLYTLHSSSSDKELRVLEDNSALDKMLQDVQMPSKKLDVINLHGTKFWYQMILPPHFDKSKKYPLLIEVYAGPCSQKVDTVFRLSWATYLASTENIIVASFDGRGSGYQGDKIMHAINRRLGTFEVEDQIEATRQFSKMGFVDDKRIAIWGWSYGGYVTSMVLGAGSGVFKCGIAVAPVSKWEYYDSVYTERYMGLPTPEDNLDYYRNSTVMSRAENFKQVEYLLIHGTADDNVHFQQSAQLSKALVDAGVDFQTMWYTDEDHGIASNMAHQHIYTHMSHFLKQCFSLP
# Protocol: DPP IV degradation studies. GIP and fatty acid derivatised GIP analogues were incubated at 37° C. with purified porcine dipeptidylpeptidase IV (5 mU in 50 mmol/l triethanolamine-HCl; pH 7.8) for 0, 2, 4, 8 and 24 hours (final peptide concentration 2 mmol/l). The reactions were subsequently terminated by addition of 10% (v/v) TFA/water and the reaction products separated using HPLC. […] HPLC peak area data were used to calculate % intact peptide remaining throughout the incubation.
# [3] = test system: Wistar rats; assay: In vivo plasma glucose and insulin after i.p. glucose with peptide in Wistar rats; parameters: species or system rat; details: 10 nmol/kg i.p. with glucose
# Protocol: In vivo biological activity of GIP and Tyr^1-glucitol GIP. Effects of GIP and Tyr^1-glucitol GIP on plasma glucose and insulin concentrations were examined using 10-12 week old male Wistar rats. The animals were housed individually in an air conditioned room and 22±2° C. with a 12 hour light/12 hour dark cycle. Drinking water and a standard rodent maintenance diet (Trouw Nutrition, Belfast, Northern Ireland) were supplied ad libitum. Food was withdrawn for an 18 hour period prior to intraperitoneal injection of glucose alone (18 mmol/kq body weight) or in combination with either GIP or Tyr^1-glucitol GIP (10 nmol/kg). Test solutions were administered in a final volume of 8 ml/kg body weight. Blood samples were collected at 0, 15, 30 and 60 minutes from the cut tip of the tail of conscious rats into chilled fluoride/heparin microcentrifuge tubes (Sarstedt, Numbrecht, Germany). Samples were centrifuged using a Beckman microcentrifuge for about 30 seconds at 13,000 g. Plasma samples were aliquoted and stored at −20° C. prior to glucose and insulin determinations. All animal studies were done in accordance with the Animals (Scientific Procedures) Act 1986.
# Analyses. Plasma glucose was assayed by an automated glucose oxidase procedure using a Beckman Glucose Analyzer II [33]. Plasma insulin was determined by dextran charcoal radioimmunoassay as described previously. Incremental areas under plasma glucose and insulin area under the curve (AUC) were calculated using a computer program (CAREA) employing the trapezoidal rule with baseline subtraction. Results are expressed as mean±SEM and values were compared using the Student's unpaired t-test.
# [4] = 25 nmol/kg/day s.c., 11 days, vs saline
molecule,measurement,setting,value
YAPGTFISDYSIAMDKIHQQDFVNWLLAQKGKKNDWKHNITQ [(Pro^3)GIP],HbA1c,"[1]; 25 nmol/kg/day s.c., 11 days",significant decreases
same,islet hypertrophy,"[1]; 25 nmol/kg/day s.c., 11 days",partial correction
same,pancreatic insulin stores,"[1]; 25 nmol/kg/day s.c., 11 days",significant decreases
same,plasma glucose concentration,[1]; [4],decreases
same,plasma insulin concentration,[1]; [4],decreases
same,persistence of beneficial effects after cessation,[1]; 9 days after cessation of treatment,reversed 9 days after cessation of treatment
same,food intake,[1]; 11 days,without any change
same,decrease in body weight,"[1]; 11 days, did not achieve significance",~7%
same,circulating insulin during glucose tolerance test,[1]; after 11 days treatment,without change
same,glucose tolerance,"[1]; after 11 days treatment, i.p. glucose 18 mmol/kg",substantially improved
same,insulin sensitivity,"[1]; after 11 days, exogenous insulin 50 U/kg i.p.",significant improvement of insulin sensitivity
CCCCCCCCCCCCCCCC(=O)NCCCC[C@H](NC(=O)[C@H](Cc1c[nH]c2ccccc12)NC(=O)[C@H](CC(=O)O)NC(=O)[C@H](CC(N)=O)NC(=O)[C@H](CCCCN)NC(=O)[C@H](CCCCN)NC(=O)CNC(=O)[C@H](CCCCN)NC(=O)[C@H](CCC(N)=O)NC(=O)[C@H](C)NC(=O)[C@H](CC(C)C)NC(=O)[C@H](CC(C)C)NC(=O)[C@H](Cc1c[nH]c2ccccc12)NC(=O)[C@H](CC(N)=O)NC(=O)[C@@H](NC(=O)[C@H](Cc1ccccc1)NC(=O)[C@H](CC(=O)O)NC(=O)[C@H](CCC(N)=O)NC(=O)[C@H](CCC(N)=O)NC(=O)[C@H](Cc1c[nH]cn1)NC(=O)[C@@H](NC(=O)[C@H](CCCCN)NC(=O)[C@H](CC(=O)O)NC(=O)[C@H](CCSC)NC(=O)[C@H](C)NC(=O)[C@@H](NC(=O)[C@H](CO)NC(=O)[C@H](Cc1ccc(O)cc1)NC(=O)[C@H](CC(=O)O)NC(=O)[C@H](CO)NC(=O)[C@@H](NC(=O)[C@H](Cc1ccccc1)NC(=O)[C@@H](NC(=O)CNC(=O)[C@H](CCC(=O)O)NC(=O)[C@H](C)NC(=O)[C@H](Cc1ccc(O)cc1)NC(C)=O)[C@@H](C)O)[C@@H](C)CC)[C@@H](C)CC)[C@@H](C)CC)C(C)C)C(=O)N[C@@H](Cc1c[nH]cn1)C(=O)N[C@@H](CC(N)=O)C(=O)N[C@H](C(=O)N[C@H](C(=O)N[C@@H](CCC(N)=O)C(=O)O)[C@@H](C)O)[C@@H](C)CC [N-AcGIP(LysPAL^37)],"remaining at 2 h, 2 mmol/l",[2]; 2 h,100%
same,"remaining at 8 h, 2 mmol/l",[2]; 8 h,100%
same,"remaining at 24 h, 2 mmol/l",[2]; 24 h,100%
"CC[C@H](C)[C@H](NC(=O)[C@H](CO)NC(=O)[C@H](Cc1ccc(O)cc1)NC(=O)[C@H](CC(=O)O)NC(=O)[C@H](CO)NC(=O)[C@@H](NC(=O)[C@H](Cc1ccccc1)NC(=O)[C@@H](NC(=O)CNC(=O)[C@H](CCC(=O)O)NC(=O)[C@H](C)NC(=O)[C@@H](N)Cc1ccc(O)cc1)[C@@H](C)O)[C@@H](C)CC)C(=O)N[C@@H](C)C(=O)N[C@@H](CCSC)C(=O)N[C@@H](CC(=O)O)C(=O)N[C@@H](CCCCN)C(=O)N[C@H](C(=O)N[C@@H](Cc1c[nH]cn1)C(=O)N[C@@H](CCC(N)=O)C(=O)N[C@@H](CCC(N)=O)C(=O)N[C@@H](CC(=O)O)C(=O)N[C@@H](Cc1ccccc1)C(=O)N[C@H](C(=O)N[C@@H](CC(N)=O)C(=O)N[C@@H](Cc1c[nH]c2ccccc12)C(=O)N[C@@H](CC(C)C)C(=O)N[C@@H](CC(C)C)C(=O)N[C@@H](C)C(=O)N[C@@H](CCC(N)=O)C(=O)N[C@@H](CCCCN)C(=O)NCC(=O)N[C@@H](CCCCN)C(=O)N[C@@H](CCCCN)C(=O)N[C@@H](CC(N)=O)C(=O)N[C@@H](CC(=O)O)C(=O)N[C@@H](Cc1c[nH]c2ccccc12)C(=O)N[C@@H](CCCCN)C(=O)N[C@@H](Cc1c[nH]cn1)C(=O)N[C@@H](CC(N)=O)C(=O)N[C@H](C(=O)N[C@H](C(=O)N[C@@H](CCC(N)=O)C(=O)O)[C@@H](C)O)[C@@H](C)CC)C(C)C)[C@@H](C)CC [GIP 1–42, reference compound]",overall insulin response (AUC) compared with glucose alone,[3],significantly greater
same,plasma glucose concentrations and AUC compared with control group,"[3]; vs glucose alone, 0-60 min",significantly lower
